Experimental data published in paper PMC6923382, “Small molecules that inhibit TNF signalling by stabilising an asymmetric form of the trimer” (Nature Communications, 2019).
“And” between values parts separate entries of the source, which are not always exact repeats. Equal values may be shown once. Each block holds one molecule with its values, some of them ahead of it.

Legend:
[1] = target: T1, TNF (Homo sapiens, UniProt P01375); assay: TNF reporter gene assay HEK-293, human TNF; assay type: cell-based; parameters: stabilise an asymmetrical form of the soluble TNF trimer; conditions: 10 pM wild-type TNF; HEK NFκΒ reporter
Protocol: Stimulation of HEK-293 cells by TNF leads to activation of the NF-κB pathway. The HEK-Blue^TM CD40L SEAP (secreted embryonic alkaline phosphatase) reporter cell line used to determine TNF activity (InvivoGen, #hkb-CD40, cells were described as mycoplasma free when purchased and were tested using Mycoalert [Lonza] after each batch of assay vial preparation). […] Cells were added to the compound/stimulus mixture and further incubated for 18 h. SEAP was measured using the colorimetric substrate HEK-Blue Detect^TM or QUANTI-Blue^TM from InvivoGen. […] The IC50 was determined as the point of inflexion between the fitted minimum and maximum of the compound dose response curve, calculated using 4PL fitted curve. Mean IC50s are reported as a mean of at least two experiments.
Target sequence in this assay (P01375 77-233 limits assumed): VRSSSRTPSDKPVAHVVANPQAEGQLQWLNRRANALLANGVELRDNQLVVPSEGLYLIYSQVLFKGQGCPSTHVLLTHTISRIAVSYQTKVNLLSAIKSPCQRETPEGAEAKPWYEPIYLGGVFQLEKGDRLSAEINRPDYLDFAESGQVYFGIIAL

[2] = target: T2, hTNF/hTNFR1 complex (Homo sapiens, UniProt P01375); assay: Analytical size exclusion chromatography of TNF:TNFR1 stoichiometry; assay type: biochemical
T2 construct: stabilise an asymmetrical form of the soluble TNF trimer; host or cells: BV (baculovirus) for hTNFR1
T2 sequence (P01375 77-233 limits assumed): as above
T2 sequence (P19438 43-184 partner limits assumed): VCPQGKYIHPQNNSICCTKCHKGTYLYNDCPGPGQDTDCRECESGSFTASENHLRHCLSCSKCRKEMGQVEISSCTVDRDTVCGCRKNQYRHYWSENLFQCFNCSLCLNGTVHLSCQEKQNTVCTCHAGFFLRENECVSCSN
Protocol: A stock of compound bound to human (h) TNF was prepared by pre-incubating hTNF (300 μM, molecular weight based on the homotrimer) overnight at 4 °C with UCB-5307 at a final concentration range from 90 μM to 690 μM, maintaining a constant DMSO concentration of 1%. The compound-bound hTNF was incubated for 1 h at 22 °C with hTNFR1 at a 3.2-fold molar excess over homotrimers (final concentrations: hTNFR1 240 μΜ, hTNF 75 µM). Identical samples were prepared with DMSO only, giving a final DMSO concentration of 0.25% for both sets of samples. Alternatively, a fully assembled hTNF/hTNFR1 complex (3 receptors per homotrimer) was formed by incubating hTNF with a 3.2-fold molar excess of hTNFR1 for 1 h at 22 °C. The TNF/TNFR1 complex was then incubated overnight at 4 °C with UCB-5307 at a final concentration range from 90 µM to 690 µM. Samples were subject to analytical size exclusion using HPLC. Injection volumes of 50 µL were separated on a TSK G3000SW L × I.D. 30 cm × 7.5 mm column (10 µm particle size) pre-equilibrated in 10 mM HEPES, pH 7.5, 150 mM NaCl.

[3] = target: T3, TNF (L57F) (Homo sapiens, UniProt P01375, L133F); assay: HEK reporter gene assay, L57F TNF; assay type: cell-based; conditions: 10 pM L57F TNF; HEK NFκΒ reporter
T3 construct: Human TNF (CID2043, UniProt P01375 residues 77–233); 6XHis-Smt3 (N, cleaved yes); host or cells: E. coli
T3 sequence (P01375 77-233 L133F): as the sequence (P01375 77-233 limits assumed) above, with L57F counted along it
Protocol: Stimulation of HEK-293 cells by TNF leads to activation of the NF-κB pathway. The HEK-Blue^TM CD40L SEAP (secreted embryonic alkaline phosphatase) reporter cell line used to determine TNF activity (InvivoGen, #hkb-CD40, cells were described as mycoplasma free when purchased and were tested using Mycoalert [Lonza] after each batch of assay vial preparation). Compounds were titrated in DMSO and pre-incubated with TNF at a concentration giving half maximal response (10 pM for human or 20 pM for mouse) or the anti-human TNFR1 agonist antibody (R&D Systems. #AF 225) for 1 h. Cells were added to the compound/stimulus mixture and further incubated for 18 h. SEAP was measured using the colorimetric substrate HEK-Blue Detect^TM or QUANTI-Blue^TM from InvivoGen. Percentage inhibitions for compound dilutions were calculated between a DMSO control and maximum inhibition (by excess anti-TNF biologic, or NF-κB inhibitor–TPCA-1 [Tocris #2559, R&D Systems]). The IC50 was determined as the point of inflexion between the fitted minimum and maximum of the compound dose response curve, calculated using 4PL fitted curve. Mean IC50s are reported as a mean of at least two experiments. Dose response curves for TNF and the anti-human TNFR1 agonist antibody are shown in Supplementary Fig. 9. […]
In this assay reduction is luminescence is due to cell killing by TNF and inhibition causes increased luminescence. […]

[4] = target: T1, TNF; assay: Biacore kinetics of binding; parameters: Human TNF (CID2043, UniProt P01375 residues 77–233); 6XHis-Smt3 (N, cleaved yes); host or cells: E. coli TOP10; conditions: SPR single-cycle, linked TNF with n-terminal HKH tag
Protocol: Surface plasmon resonance using a Biacore T100/T200 was used to measure the association rate constant (ka), the dissociation rate constant (kd) and the affinity (KD) of compounds. TNF (VCID 2043 Beryllium) was immobilised to approximately 5 kRU as described above and equilibrated for at least 5 h in HBS P + buffer with 5% DMSO. UCB-6876 was serially diluted from 187.5 µM, flowing over the immobilised TNF at 50 µL/min for 3 min before allowing full dissociation under flow for at least 6 min. […] […] The compounds were allowed to dissociate for 2 h under flow.
Target sequence in this assay (P01375 with tags, fused parts or gaps): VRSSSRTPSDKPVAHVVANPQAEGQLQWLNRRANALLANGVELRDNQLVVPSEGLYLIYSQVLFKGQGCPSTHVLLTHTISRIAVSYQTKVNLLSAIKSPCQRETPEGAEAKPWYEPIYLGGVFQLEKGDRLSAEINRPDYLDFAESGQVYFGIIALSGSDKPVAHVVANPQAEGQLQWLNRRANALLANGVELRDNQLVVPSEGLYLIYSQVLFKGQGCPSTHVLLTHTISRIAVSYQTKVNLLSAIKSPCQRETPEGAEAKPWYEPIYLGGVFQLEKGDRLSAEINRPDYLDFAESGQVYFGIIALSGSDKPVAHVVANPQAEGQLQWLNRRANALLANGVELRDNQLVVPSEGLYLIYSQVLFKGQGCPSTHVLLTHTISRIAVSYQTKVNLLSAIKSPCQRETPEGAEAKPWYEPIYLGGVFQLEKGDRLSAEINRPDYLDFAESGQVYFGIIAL

[5] = target: T1, TNF; assay: Thermal denaturation assay of thermal stability; assay type: binding; parameters: stabilise an asymmetrical form of the soluble TNF trimer
Protocol: A fluorescence probed thermal denaturation assay was performed to assess the effect of the compounds on the thermal stability of TNF (or other members of the TNF family) as a measure of compound binding. The reaction mixture contained 5 µL of 30× SYPRO® Orange dye (Invitrogen) and 5 µL of TNF (at 1 mg/mL), 37.5 μL PBS, pH 7.4 and 2.5 μL of compound (at 2 mM in DMSO). The mixture (10 µL) was dispensed in quadruplicate into a 384 PCR optical well plate and was run on a 7900HT Fast Real-Time PCR System ([…]). The PCR System heating device was set at 20 °C to 99 °C with a ramp rate of 1.1 °C min^−1; fluorescence changes in the wells were monitored by a CCD device. The fluorescence intensity increase was plotted as a function of temperature and the Tm calculated as the midpoint of this denaturation curve (determined as the point of inflection).
Target sequence in this assay (P01375 77-233 limits assumed): as the sequence (P01375 77-233 limits assumed) above

[6] = target: T1, TNF; assay: Biacore SPR fragment binding to immobilised TNF; parameters: Human TNF (CID2043, UniProt P01375 residues 77–233); 6XHis-Smt3 (N, cleaved yes); host or cells: E. coli TOP10; conditions: SPR fragment screen; concentration-dependent response
Description: (§1) BIA (Biomolecular Interaction Analysis) uses SPR to measure the binding of compounds to a protein immobilised on a chip surface. For this purpose a Biacore A100/4000 (GE Healthcare) was used. A CM5 sensor was immobilised via amine coupling on flow cell 1 with human Fc antibody domain (10k response units; kRU) and TNFR-Fc captured (2.5 kRU), flow cell 2 TNF (11 kRU), flow cell 3 was left blank (for non-specific binding), flow cell 4 TNFR-Fc (10 kRU), and flow cell 5 goat anti-human Fc 16 kRU). The sensor surface was then equilibrated in HBS-P (10 mM HEPES pH 7.4, 0.15 M NaCl, 0.005% Surfactant P20, BIAcore, GE Healthcare) with 5% DMSO for at least 5 h. Compounds were diluted from 100 mM stocks into DMSO matched buffer and then flowed over the immobilised flow cells at a concentration of 250 µM at the maximum flow rate of 30 μL/min. Background subtraction binding curves were analysed using the Biacore A100 BIA evaluation software version 1.1 following standard procedures.
Target sequence in this assay (P01375 77-233): as the sequence (P01375 77-233 limits assumed) above

[7] = tested on: TNFR1 extracellular domain and control proteins; assay: Biacore SPR binding to control surfaces; conditions: capture antibody plus TNFR1, capture antibody
Description: as §1

[8] = Dynamic light scattering (colloidal aggregation); assay type: physicochemical; conditions: 100 μM; no detergent; 25°C; n=5
Protocol: Dynamic light scattering (DLS) experiments have been performed with compounds […]
baseline control and positive control (miconazole at 100 μM) were included. The radius data […]
compound in the absence of detergent.
DLS data (Malvern Nano ZS). Each sample (150 μl) was measured 5 times in a low volume disposable sizing cuvette at 25°C using 173º non-invasive backscatter (NIBS). […]

[9] = target: T4, mouse TNF (Mus musculus, UniProt P06804); assay: Mouse TNF induced neutrophil recruitment in vivo; conditions: Etanercept 30 mg/kg i.v.; mouse TNF; individual mice
T4 construct: stabilise an asymmetrical form of the soluble TNF trimer
T4 sequence (P06804 80-235 limits assumed): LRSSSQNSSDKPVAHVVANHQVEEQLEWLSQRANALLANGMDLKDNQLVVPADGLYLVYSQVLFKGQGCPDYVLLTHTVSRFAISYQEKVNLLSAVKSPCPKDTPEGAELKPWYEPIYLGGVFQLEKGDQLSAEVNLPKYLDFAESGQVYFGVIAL
Protocol: All in vivo studies were reviewed by an internal Ethical Review Body (ERB) and conducted in accordance with the Animals (Scientific Procedures) Act 1986, EU Directive 2010/63/EU. […] Anti-TNFα biologics, CDP571[21] (10 mg/kg) and etanercept (30 mg/kg), diluted in PBS, were dosed intravenously prior to human and mouse TNF challenge. Two hours after the TNF challenge, mice were sacrificed and the peritoneal cavity lavaged with 3 mL of FACS buffer. An aliquot (0.3 mL) of lavage fluid was used to assess the number CD45^+GR1^+ cells by flow cytometry. Briefly, the cells were treated with ACK lysis buffer, washed and suspended in FACS buffer prior to staining with FITC anti-mouse CD45 and PE anti-mouse GR1. Data are shown as mean ± standard error of the number of CD45^+GR-1^+ cells. Statistical significance (*p < 0.05, **p < 0.01, ****p < 0.0001) was determined using one-way ANOVA with Dunnett’s multiple comparison test.

[10] = target: T5, Mouse TNF (mouse), P06804; assay: native MS; mouse and human TNF, each 20 µM in 20 mM ammonium acetate pH 7.4, mixed 1:1 and analysed at various time points; no compound; nanospray, Exactive Plus EMR; conditions: remark: other sources report otherwise
T5 chain: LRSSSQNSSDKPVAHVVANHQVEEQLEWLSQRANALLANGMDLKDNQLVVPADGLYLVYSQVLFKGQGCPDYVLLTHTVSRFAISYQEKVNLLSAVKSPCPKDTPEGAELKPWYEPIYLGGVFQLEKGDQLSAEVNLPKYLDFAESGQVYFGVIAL

[11] = target: T5, Mouse TNF (mouse), P06804; assay: native MS; human TNF pre-incubated (saturated) with UCB-6876, then mixed 1:1 with mouse TNF; 20 mM ammonium acetate, 4% DMSO in the compound stock; various time points; conditions: remark: other sources report otherwise

Molecule: Etanercept [reference compound]
CD45+ GR-1+ cells/mL in the peritoneal cavity [9]: 6123.9 cells/mL and 7203.0 cells/mL and 3131.9 cells/mL and 6069.0 cells/mL and 1965.3 cells/mL

B1: Mouse TNF, P06804 80-235 (ligand)
chain: LRSSSQNSSDKPVAHVVANHQVEEQLEWLSQRANALLANGMDLKDNQLVVPADGLYLVYSQVLFKGQGCPDYVLLTHTVSRFAISYQEKVNLLSAVKSPCPKDTPEGAELKPWYEPIYLGGVFQLEKGDQLSAEVNLPKYLDFAESGQVYFGVIAL
stoichiometry N [10]: 3
stoichiometry N [11]: 3

Second part, led by results:

inhibition of wild-type TNF [1]: inhibited
effect on preformed hTNF/hTNFR1 complex ([2]; 90-690 µM compound, 3.2-fold excess hTNFR1): dislodging one of the receptors
inhibition of L57F TNF [3]: did not inhibit
kd (off-rate) [4]: 5.76e-05 s⁻¹
Kd ([4]; read-out: KD): 9 nM
Tm difference (hTNF + compound) - (hTNF+DMSO) ([5]; DMSO 5%): 12.2 °C
Tm (mean ± SD) ([5]; hTNF + DMSO (5%) + compound, n=4 replicates): 72.9 ± 0.6 °C
Tm1 Average ([5]; inhouse hTNF 5% DMSO + compound, 4 wells): 72.9 °C
Unreviewed - Tm1 ([5]; single wells, inhouse hTNF 5% DMSO + compound, listed as 1445307-000, in °C): 72.4 and 73.5 and 73.2
Molecule: Cc1ccc(C)c(Cn2c(C(O)c3ccncc3)nc3ccccc32)c1 (stereo not shown) [UCB-5307]
number of TNFR1 bound per hTNF trimer, hTNF preloaded with compound ([2]; 90-690 μM compound overnight, then 3.2-fold excess hTNFR1): dose-dependent shift from three receptors bound to two

binding to immobilised TNF [6]: bound to TNF
colloidal aggregation (DLS radius) [8]: no evidence of colloidal aggregation
Molecule: Cc1ccccc1Cn1c(CO)nc2ccccc21 [UCB-6786]
binding to TNFR1 and control proteins (selectivity) [7]: selectivity over the TNFR1 extracellular domain and control proteins
